From BindingDB's records for doi:10.7270/Q22J699S (Nmmlsc, 2010)

Target: Guanine nucleotide-binding protein G(o) subunit alpha (Homo sapiens, UniProt P09471)
Assay: RGS8-Galphao interaction regulators, SAR follow-up, biochemical, multiplexed bead assay, additional SAR round (AID 2827)

Guanine nucleotide-binding protein G(o) subunit alpha, sequence (P09471 whole entry): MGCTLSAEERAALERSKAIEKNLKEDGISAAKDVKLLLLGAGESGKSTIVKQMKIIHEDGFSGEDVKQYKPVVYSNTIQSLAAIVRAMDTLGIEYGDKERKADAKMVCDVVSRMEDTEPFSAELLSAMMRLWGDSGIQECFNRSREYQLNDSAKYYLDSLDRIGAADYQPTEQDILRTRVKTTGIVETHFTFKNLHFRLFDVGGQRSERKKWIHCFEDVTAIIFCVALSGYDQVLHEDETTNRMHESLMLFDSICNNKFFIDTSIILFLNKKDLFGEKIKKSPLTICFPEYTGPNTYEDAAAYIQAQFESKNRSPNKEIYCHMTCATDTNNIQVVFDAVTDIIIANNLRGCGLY

SMILES | EC50 [µM]
NC(=O)c1sc2cc([N+](=O)[O-])ccc2c1Cl [KSC-1-100] | > 30
O=C(NCCCN1CCOCC1)c1sc2cc([N+](=O)[O-])ccc2c1Cl [3-chloranyl-N-(3-morpholin-4-ylpropyl)-6-nitro-1-benzothiophene-2-carboxamide] | > 30

The remaining lines, values ahead:

EC50 [µM] | SMILES
> 30 | O=C(c1sc2cc([N+](=O)[O-])ccc2c1Cl)N1CCNCC1
> 30 | O=C(NCCCn1ccnc1)c1sc2cc([N+](=O)[O-])ccc2c1Cl [3-chloro-N-[3-(1-imidazolyl)propyl]-6-nitro-1-benzothiophene-2-carboxamide]
> 30 | Cc1ccc2c(Cl)c(C(=O)NCCCN3CCOCC3)sc2c1 [KUC103874N]
